Consider 17 molecules from publication PMC6355318 (Bioorganic & Medicinal Chemistry Letters, 2019).

In brackets after ≈: the same amount, converted by molar mass.

For the first series, the target named is PfPKG (Plasmodium falciparum, UniProt Q8I719). In words: biochemical. Format: biochemical. Conditions: LLE (pIC50 - mLogD).
PfPKG, sequence (Q8I719 whole entry): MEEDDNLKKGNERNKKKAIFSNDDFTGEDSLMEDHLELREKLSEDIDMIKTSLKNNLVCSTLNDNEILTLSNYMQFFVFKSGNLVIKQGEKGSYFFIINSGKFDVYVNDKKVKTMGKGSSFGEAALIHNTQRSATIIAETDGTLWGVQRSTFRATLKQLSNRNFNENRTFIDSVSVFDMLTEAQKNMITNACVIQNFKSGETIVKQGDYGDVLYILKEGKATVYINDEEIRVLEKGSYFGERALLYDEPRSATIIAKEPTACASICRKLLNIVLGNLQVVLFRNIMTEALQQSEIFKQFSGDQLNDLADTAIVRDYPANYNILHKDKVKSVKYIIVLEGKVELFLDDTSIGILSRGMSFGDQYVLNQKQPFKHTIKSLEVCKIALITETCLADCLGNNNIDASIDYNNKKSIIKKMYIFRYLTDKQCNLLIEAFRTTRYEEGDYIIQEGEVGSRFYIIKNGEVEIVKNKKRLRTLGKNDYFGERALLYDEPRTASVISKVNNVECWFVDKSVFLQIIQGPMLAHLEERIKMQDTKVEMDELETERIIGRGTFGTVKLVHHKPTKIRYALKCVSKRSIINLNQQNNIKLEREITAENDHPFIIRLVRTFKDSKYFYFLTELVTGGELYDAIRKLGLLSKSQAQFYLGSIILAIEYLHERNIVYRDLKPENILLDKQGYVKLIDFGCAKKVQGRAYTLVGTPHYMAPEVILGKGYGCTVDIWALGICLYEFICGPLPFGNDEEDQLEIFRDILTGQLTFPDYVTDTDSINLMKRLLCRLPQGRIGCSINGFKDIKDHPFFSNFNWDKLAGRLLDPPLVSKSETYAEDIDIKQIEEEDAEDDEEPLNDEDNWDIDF
Regarding `CN(C)Cc1ccn2c(-c3cc(N)ncn3)c(-c3ccc(F)cc3)nc2c1` [Compound 5], the LLE is on record as 4.7.

`CN(C)Cc1ccn2c(-c3ccncn3)c(-c3ccc(F)cc3)nc2c1` [Compound 7, reference compound] came in with an LLE of 5.9.

`CN(C)Cc1ccn2c(-c3ccncc3)c(-c3ccc(F)cc3)nc2c1` [Compound 8]: the LLE is reported as 4.2.

In turn, `CN(C)Cc1ccn2c(-c3cn[nH]c3)c(-c3ccc(F)cc3)nc2c1` [Compound 9] showed an LLE of 5.1.

Molecule `CN(C)Cc1ccn2c(-c3ccnc(N)c3)c(-c3ccc(F)cc3)nc2c1` [Compound 10] had an LLE of 5.3.

Still in this series, the particulars now being: compared to 2.
Regarding `CN(C)Cc1ccn2c(-c3ccncc3)c(-c3ccc(F)cc3)nc2c1` [Compound 8], the “fold less biochemically active” value was around 40 fold.

The same series, now with this note: recombinant kinase; read-out: PfPKG pIC50 (converted).
As for `CN(C)Cc1ccn2c(-c3ccnc(N)n3)c(-c3ccc(F)cc3)nc2c1` [Compound 2, reference compound], the IC50 is 2 nM.

With `CN(C)Cc1ccn2c(-c3cc(N)ncn3)c(-c3ccc(F)cc3)nc2c1` [Compound 5], the IC50 is 87.1 nM.

For the molecule `CN(C)Cc1ccn2c(-c3ccncn3)c(-c3ccc(F)cc3)nc2c1` [Compound 7, reference compound], the IC50 was 12 nM.

On to `CN(C)Cc1ccn2c(-c3ccncc3)c(-c3ccc(F)cc3)nc2c1` [Compound 8], for which the IC50 was 77.6 nM.

On to `CN(C)Cc1ccn2c(-c3cn[nH]c3)c(-c3ccc(F)cc3)nc2c1` [Compound 9], for which the IC50 is 120 nM.

`CN(C)Cc1ccn2c(-c3ccnc(N)c3)c(-c3ccc(F)cc3)nc2c1` [Compound 10]: the IC50 was 52.5 nM.

Turning to `CN(C)Cc1ccn2c(-c3ccnc(Nc4ccc(N5CCNCC5)cc4)c3)c(-c3ccc(F)cc3)nc2c1` [Compound 11], the IC50 is 257 nM.

Turning to `CN(C)CCCNc1nccc(-c2c(-c3ccc(F)cc3)nc3ccccn23)n1` [Compound 14], the IC50 is 851 nM.

For `Fc1ccc(-c2nc3ccccn3c2-c2ccnc(NC3CCOCC3)n2)cc1` [Compound 15], the IC50 was 132 nM.

Take `CN1CCC(c2ccc(Nc3nccc(-c4c(-c5ccc(F)cc5)nc5ccccn45)n3)cc2)CC1` [Compound 17]: the IC50 is 5.01 nM.

Consider `CN1CCC(n2cc(Nc3nccc(-c4c(-c5ccc(F)cc5)nc5ccccn45)n3)cn2)CC1` [Compound 18], for which the IC50 is 100 nM.

Take `CN(C)Cc1cc2nc(-c3ccc(F)cc3)c(-c3ccnc(N)n3)n2cn1` [Compound 19]: the IC50 was 55 nM.

`CN(C)Cc1ccn2c(-c3ccnc(N)n3)c(-c3ccc(F)cc3)nc2n1` [Compound 20]: the IC50 was 81.3 nM.

With `CN(C)Cc1ccc2c(c1)nc(-c1ccc(F)cc1)n2-c1ccnc(N)n1` [Compound 23], the IC50 is 30.9 nM.

For the molecule `CN(C)CCNc1ccc2nc(-c3ccc(F)cc3)c(-c3ccnc(N)n3)n2n1` [Compound 26], the IC50 is 407 nM.

Consider `CN(C)Cc1ccc2c(-c3ccnc(N)n3)c(-c3ccc(F)cc3)nn2c1` [Compound 29], for which the IC50 is 4.07 nM.

Tested on in the next series: not listed separately
Nature of the series: Measured logD (shake flask). Format: physicochemical. Conditions: octanol/PBS. On the procedure: LogD measurements were carried out using the shake flask method. […] The ratios of areas of the peaks were used to calculate the LogD in accordance with the equation:
LogD = Log10(Area-TL/Area BL)
`CN(C)CCCNc1nccc(-c2c(-c3ccc(F)cc3)nc3ccccn23)n1` [Compound 14] showed a mLogD of 1.8.

Regarding `Fc1ccc(-c2nc3ccccn3c2-c2ccnc(NC3CCOCC3)n2)cc1` [Compound 15], the mLogD is 1.8.

Take `CN1CCN(c2ccc(Nc3nccc(-c4c(-c5ccc(F)cc5)nc5ccccn45)n3)cc2)CC1` [Compound 16]: the mLogD was determined as 4.0.

Take `CN1CCC(c2ccc(Nc3nccc(-c4c(-c5ccc(F)cc5)nc5ccccn45)n3)cc2)CC1` [Compound 17]: the mLogD is recorded as 3.3.

The molecule `CN1CCC(n2cc(Nc3nccc(-c4c(-c5ccc(F)cc5)nc5ccccn45)n3)cn2)CC1` [Compound 18] registered a mLogD of 2.7.

With `CN(C)Cc1cc2nc(-c3ccc(F)cc3)c(-c3ccnc(N)n3)n2cn1` [Compound 19], the mLogD came out at 2.1.

Consider `CN(C)Cc1ccn2c(-c3ccnc(N)n3)c(-c3ccc(F)cc3)nc2n1` [Compound 20], for which the mLogD is given as 2.1.

As for `CN(C)Cc1ccc2c(c1)nc(-c1ccc(F)cc1)n2-c1ccnc(N)n1` [Compound 23], the mLogD is reported as 1.2.

In turn, `CN(C)CCNc1ccc2nc(-c3ccc(F)cc3)c(-c3ccnc(N)n3)n2n1` [Compound 26] gave a mLogD of 1.6.

Molecule `CN(C)Cc1ccc2c(-c3ccnc(N)n3)c(-c3ccc(F)cc3)nn2c1` [Compound 29] had a mLogD of 2.5.

Tested on in the next series: not listed separately
Nature of the series: Kinetic solubility. Format: physicochemical. Conditions: PBS pH 7.4 with 2% DMSO, PBS pH7.4, 98:2 PBS:DMSO, 90 minutes, target 200 μM.
Method: Each compound was run in triplicate on the same plate with two standard compounds, verapamil and ketoconazole, included per plate. The filtration plate was shaken at 500 rpm for 90 minutes and then filtered under vacuum. The filtrate was sampled and diluted with a DMSO:PBS mixture in a flat bottomed UV plate to give a solution with a composition of PBS:DMSO 80:20. […] The UV absorbance for these solutions was read across 230-400 nm at 1 nm intervals using a TECAN Safire II plate reader and a suitable UV wavelength chosen around the UV maximum of each compound.
As a reminder, the solubility (kinetic) is the concentration staying in solution when a stock, usually in DMSO, is diluted into the medium. In the case of `CN1CCN(c2ccc(Nc3nccc(-c4c(-c5ccc(F)cc5)nc5ccccn45)n3)cc2)CC1` [Compound 16], the kinetic solubility at 1.5 h, 200 µM came out at 9 µM (≈ 4.32 µg/mL).

For the molecule `CN1CCC(n2cc(Nc3nccc(-c4c(-c5ccc(F)cc5)nc5ccccn45)n3)cn2)CC1` [Compound 18], the solubility (kinetic) at 1.5 h, 200 µM was determined as 237 µM (≈ 111 µg/mL).

The next series deals with P. falciparum. Nature of the series: blood stage hypoxanthine incorporation (HXI) cell-based assay. Conditions: Plasmodium falciparum, read-out: Pf HXI pEC50 (converted). The text has this:
[23] For full details on both biochemical assay and anti-malarial hypoxanthine incorporation (cell based) assay procedures, see reference 14.
As for `CN(C)Cc1ccn2c(-c3ccnc(N)n3)c(-c3ccc(F)cc3)nc2c1` [Compound 2, reference compound], the EC50 is 363 nM.

Take `CN1CCN(c2ccc(Nc3nccc(-c4c(-c5ccc(F)cc5)nc5ccccn45)n3)cc2)CC1` [Compound 16]: the EC50 was 115 nM.

For `CN1CCC(c2ccc(Nc3nccc(-c4c(-c5ccc(F)cc5)nc5ccccn45)n3)cc2)CC1` [Compound 17], the EC50 was 158 nM.

Turning to `CN1CCC(n2cc(Nc3nccc(-c4c(-c5ccc(F)cc5)nc5ccccn45)n3)cn2)CC1` [Compound 18], the EC50 is 575 nM.

In the case of `CN(C)Cc1cc2nc(-c3ccc(F)cc3)c(-c3ccnc(N)n3)n2cn1` [Compound 19], the EC50 was 3720 nM.

`CN(C)Cc1ccn2c(-c3ccnc(N)n3)c(-c3ccc(F)cc3)nc2n1` [Compound 20]: the EC50 was 4070 nM.

Turning to `CN(C)Cc1ccc2c(-c3ccnc(N)n3)c(-c3ccc(F)cc3)nn2c1` [Compound 29], the EC50 was 513 nM.

Tested on in the next series: not given
Assay: not given
The conditions noted are these: % remaining after 30 mins, mouse liver microsomes, 1 μM.
`CN(C)CCCNc1nccc(-c2c(-c3ccc(F)cc3)nc3ccccn23)n1` [Compound 14] came in with an MLM % rem of 62%.

Take `Fc1ccc(-c2nc3ccccn3c2-c2ccnc(NC3CCOCC3)n2)cc1` [Compound 15]: the MLM % rem is 84%.

On to `CN1CCN(c2ccc(Nc3nccc(-c4c(-c5ccc(F)cc5)nc5ccccn45)n3)cc2)CC1` [Compound 16], for which the MLM % rem amounted to 65%.

Turning to `CN1CCC(c2ccc(Nc3nccc(-c4c(-c5ccc(F)cc5)nc5ccccn45)n3)cc2)CC1` [Compound 17], the MLM % rem is 55%.

For the molecule `CN1CCC(n2cc(Nc3nccc(-c4c(-c5ccc(F)cc5)nc5ccccn45)n3)cn2)CC1` [Compound 18], the MLM % rem is 37%.

As to `CN(C)Cc1cc2nc(-c3ccc(F)cc3)c(-c3ccnc(N)n3)n2cn1` [Compound 19], the MLM % rem is given as 59%.

`CN(C)Cc1ccn2c(-c3ccnc(N)n3)c(-c3ccc(F)cc3)nc2n1` [Compound 20] displayed an MLM % rem of 67%.

`CN(C)Cc1ccc2c(c1)nc(-c1ccc(F)cc1)n2-c1ccnc(N)n1` [Compound 23]: the MLM % rem is reported as 78%.

In turn, `CN(C)CCNc1ccc2nc(-c3ccc(F)cc3)c(-c3ccnc(N)n3)n2n1` [Compound 26] yielded an MLM % rem of 68%.

`CN(C)Cc1ccc2c(-c3ccnc(N)n3)c(-c3ccc(F)cc3)nn2c1` [Compound 29] had an MLM % rem of 22%.

Tested on in a further series: not given
Assay: not given
Conditions: passive permeability, 5 hours at room temperature.
Take `CN(C)CCCNc1nccc(-c2c(-c3ccc(F)cc3)nc3ccccn23)n1` [Compound 14]: the PAMPA was 8.2 ×10⁻⁶ cm/s.

In turn, `Fc1ccc(-c2nc3ccccn3c2-c2ccnc(NC3CCOCC3)n2)cc1` [Compound 15] had a PAMPA of 14.5 ×10⁻⁶ cm/s.

With `CN1CCN(c2ccc(Nc3nccc(-c4c(-c5ccc(F)cc5)nc5ccccn45)n3)cc2)CC1` [Compound 16], the PAMPA was found to be 0 ×10⁻⁶ cm/s.

`CN1CCC(c2ccc(Nc3nccc(-c4c(-c5ccc(F)cc5)nc5ccccn45)n3)cc2)CC1` [Compound 17]: the PAMPA stood at 0 ×10⁻⁶ cm/s.

Regarding `CN1CCC(n2cc(Nc3nccc(-c4c(-c5ccc(F)cc5)nc5ccccn45)n3)cn2)CC1` [Compound 18], the PAMPA was 12.4 ×10⁻⁶ cm/s.

Turning to `CN(C)Cc1cc2nc(-c3ccc(F)cc3)c(-c3ccnc(N)n3)n2cn1` [Compound 19], the PAMPA is 5.8 ×10⁻⁶ cm/s.

`CN(C)Cc1ccn2c(-c3ccnc(N)n3)c(-c3ccc(F)cc3)nc2n1` [Compound 20] had a PAMPA of 11.8 ×10⁻⁶ cm/s.

Turning to `CN(C)Cc1ccc2c(c1)nc(-c1ccc(F)cc1)n2-c1ccnc(N)n1` [Compound 23], the PAMPA was 3.2 ×10⁻⁶ cm/s.

In turn, `CN(C)CCNc1ccc2nc(-c3ccc(F)cc3)c(-c3ccnc(N)n3)n2n1` [Compound 26] returned a PAMPA of 1 ×10⁻⁶ cm/s.

Molecule `CN(C)Cc1ccc2c(-c3ccnc(N)n3)c(-c3ccc(F)cc3)nn2c1` [Compound 29] yielded a PAMPA of 18.5 ×10⁻⁶ cm/s.
